Source: patent publication US9315563B2, “Peptides that inhibit angiotensin converting enzyme and peptides with antioxidant activity purified from ovotransferrin and methods of producing and using the same” (The Governors of the University of Alberta, priority 2009, dated 2016)
“And” between values parts separate entries of the source, which are not always exact repeats. Identical values can stand only once.

Assay: ORAC-FL assay (oxygen radical absorbance capacity)
Conditions: for ORAC: chemically synthesized peptides, Trolox equivalent; for Change of antioxidant activity on extension of the peptide: ORAC, relative to GWNI, WNIP or AGWNIP; for ORAC value (sign, in words): suggesting prooxidant activity
Protocol: Briefly, 80 mM AAPH and 200 nM fluorescein in 75 mM phosphate buffer at pH 7.4 were prepared for each experiment. For each run, 20 μL of antioxidant, and 80 μL of phosphate buffer (or 100 μL of Trolox standard solutions at final concentrations of 1 to 8 μM) were placed in wells of a 96-well microplate, followed by addition of 50 μL of the fluorescein solution. The mixture was preincubated for 15 min at 37° C. 50 μL of AAPH solution was added rapidly using a multichannel pipet. The microplate was immediately placed in a Fluoroskan Ascent microplate reader (Thermo Electron Corporation) with 485-P excitation and 538-P emission filters and the fluorescence recorded every minute for 100 min. All readings were recorded using Fluoroskan Ascent software. The area under the curve of fluorescence decay (AUC) was calculated using Graphpad prism software (trial version). Regression equations between AUC and antioxidant concentrations were calculated for all the samples. The ORAC value was calculated by dividing the slope of sample regression curve by the slope of Trolox regression curve. Final ORAC values were expressed as μmol of Trolox equivalent/mg of protein or peptide.

| Molecule | ORAC | Change of antioxidant activity on extension of the peptide | ORAC value (sign, in words) |
| --- | --- | --- | --- |
| Oc1cc(O)c2c(c1)O[C@H](c1ccc(O)c(O)c1)[C@@H](O)C2 [(+)-catechin, reference compound] | 14.9 μmol/μmol |  |  |
| AGWNI | 8.55 ± 0.60 μmol/μmol | decreased the antioxidant activity by half |  |
| AGWNIP | 7.64 ± 0.83 μmol/μmol | decreased the antioxidant activity by half |  |
| AGWNIPIGT | 5.25 ± 0.26 μmol/μmol | did not decrease the antioxidant activity further |  |
| AIEWEGIESGSVEQA | 0.95 ± 0.46 μmol/μmol |  |  |
| GWNI | 13.90 μmol/μmol and 13.90 ± 1.05 μmol/μmol |  |  |
| GWNIP | 6.19 ± 0.64 μmol/μmol | decreased the antioxidant activity by half |  |
| IAAEVYEHTEGSTTSY | 2.39 ± 0.17 μmol/μmol |  |  |
| IANNEADAISLDGGQVFEAG | 0.43 ± 0.05 μmol/μmol |  |  |
| IEWEGIESGSVEQA | 0.73 ± 0.16 μmol/μmol |  |  |
| LGFEY | 9.79 ± 0.55 μmol/μmol |  |  |
| LGFEYY | 7.25 ± 0.71 μmol/μmol |  |  |
| LSKAQSDFG | −1.40 ± 0.69 μmol/μmol |  | negative ORAC values |
| LVEKGDVAFI | −0.07 ± 0.03 μmol/μmol |  | negative ORAC values |
| PIAAEVYEHTEGSTTSY | 1.68 ± 0.03 μmol/μmol |  |  |
| VIPMGL | 2.89 ± 0.15 μmol/μmol |  |  |
| WNIP | 15.47 μmol/μmol and 15.47 ± 0.68 μmol/μmol |  |  |
